Molecules are shown by their SMILES. Substitutions are numbered along the chain they refer to. Some results are limits rather than exact numbers.

The record followed here is patent US9468632B2, “Methods and compositions for targeting cancer stem cells” (The Regents of the University of Michigan, priority 2012, dated 2016).

The subject of test [1] is primary human tumor xenografts. The experiment in a line: Primary human tumor xenografts from chemotherapy refractory ovarian cancer. The format is in vivo, mice. To be noted: treatment started at ˜500 mm^3. The source says:
In order to confirm in vivo activity against primary ovarian cancers, primary human tumor xenografts were generated from a patient with chemotherapy refractory ovarian cancer. Xenografts were allowed to grow until they reached ˜500 mm^3, and then treatment with either vehicle, cisplatin or cisplatin and UM 673 was initiated. […] After discontinuation of therapy, tumor regrowth was observed after approximately 4 weeks (FIG. 5D).

In the next test the test system is ALDH+ cells. The experiment in a line: Time to recovery after treatment, isolated ALDH+ cells. The format is cell-based. The source says:
(§1) A. Time to recovery for SKOV3 ovarian cancer cells treated with cisplatin or combined cisplatin and ALDH inhibitor. […] Cisplatin treated ALDH+ cells required approximately 6 days to recover whereas cisplatin treated ALDH− cells required 14 days to recover.

Test [2] deals with A2780 tumor cell xenografts. In words: A2780 tumor cell xenografts, tumor growth. Type of test: in vivo, mice. The conditions noted are these: unsorted A2780 cells, treatment from day 3. As for the experimental part: 6-8 week old nude female mice were purchased from Charles River Laboratories. All xenograft experiments were performed with approval of the University Committee on Use and Care of Animals of the University of Michigan. To generate tumors, 7.5×10^4 unsorted A2780 cells or 7500 CD133+ sorted A2780 cells were combined with 100 μl of DPBS and 100 μl of Matrigel (BD Biosciences), and then implanted subcutaneously into bilateral axillae of each mouse. 3 days after inoculation with tumors, mice were given an intra-peritoneal injection of (1) control DMSO 40 μl, (2) Cisplatin 250 μg/ml, (3) UM #673 10 μM, or (4) Cisplatin plus UM #673 (n=9 mice per treatment group). Tumor growth was measured using calipers, and tumor volume was calculated based on the modified ellipsoid formula (L×W×W/2), where L is the length and W is the width of the tumor. The mice were euthanized when tumors reached 1.5 to 2 cm^3 and animal safety euthanasia guidelines were met. Intraperitoneal tumors were generated using 5×10^6 OVCAR8 in […] of PBS and injected I.P. 3 days after inoculation, mice were given intra-peritoneal injection of Cisplatin or Cisplatin plus UM #673.
The impact of UM673 as a single agent was evaluated. NOD/SCID mice were inoculated with 1×10^5 unsorted A2780 cells and treatment was initiated three days after tumor inoculation with either vehicle control or UM #673. […] This is consistent with other studies of CSC targeting agents.
The experiments were repeated in combination with cisplatin. In addition, xenografts from both whole cell line and FACS isolated CD133+ cells were treated.

In test [3] the test system is in vitro treated, PI-/Annexin-FACS isolated live cells. The experiment in a line: Tumor initiation capacity of in vitro treated live cells injected into mice. The format is in vivo. On the procedure:
An important functional aspect of a cancer stem cell is the ability to initiate tumors with limited cell numbers. In order to determine if UM673 could impact tumor initiation, cells were treated in vitro with a single dose of UM673 alone or in combination with cisplatin. Cells were allowed to recover for three days and then PI(−)/Annexin(−) live cells were faxed isolated and injected into mice. 200, 1000, or 5000 cells from each treatment group (n=4-10/group) were injected.

For another test, the system named is ALDH− cells. In words: Time to recovery after treatment, isolated ALDH− cells. Type of test: cell-based.
Source text: as §1

For another test, the target named is ALDH2 (Homo sapiens, UniProt P05091). In words: In vitro enzymatic inhibition assay, ALDH2. Type of test: biochemical.
Chain of ALDH2 (P05091 18-517): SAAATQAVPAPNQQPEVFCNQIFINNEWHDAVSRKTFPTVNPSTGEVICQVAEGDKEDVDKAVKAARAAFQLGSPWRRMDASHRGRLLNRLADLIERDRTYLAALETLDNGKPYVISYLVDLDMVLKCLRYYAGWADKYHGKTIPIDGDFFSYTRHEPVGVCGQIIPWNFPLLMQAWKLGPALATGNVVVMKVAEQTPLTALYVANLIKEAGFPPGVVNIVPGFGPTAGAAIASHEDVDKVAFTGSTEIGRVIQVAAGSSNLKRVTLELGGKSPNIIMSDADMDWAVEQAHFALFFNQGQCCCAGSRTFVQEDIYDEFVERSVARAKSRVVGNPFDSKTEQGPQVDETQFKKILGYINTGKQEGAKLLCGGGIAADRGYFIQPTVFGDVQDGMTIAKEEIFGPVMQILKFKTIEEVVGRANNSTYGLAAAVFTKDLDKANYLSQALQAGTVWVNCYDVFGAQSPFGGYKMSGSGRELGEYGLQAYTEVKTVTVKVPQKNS
Another test deals with T1, ALDH1A1 (S121) (Homo sapiens, UniProt P00352, N121S).
T1 sequence (P00352 1-501 N121S): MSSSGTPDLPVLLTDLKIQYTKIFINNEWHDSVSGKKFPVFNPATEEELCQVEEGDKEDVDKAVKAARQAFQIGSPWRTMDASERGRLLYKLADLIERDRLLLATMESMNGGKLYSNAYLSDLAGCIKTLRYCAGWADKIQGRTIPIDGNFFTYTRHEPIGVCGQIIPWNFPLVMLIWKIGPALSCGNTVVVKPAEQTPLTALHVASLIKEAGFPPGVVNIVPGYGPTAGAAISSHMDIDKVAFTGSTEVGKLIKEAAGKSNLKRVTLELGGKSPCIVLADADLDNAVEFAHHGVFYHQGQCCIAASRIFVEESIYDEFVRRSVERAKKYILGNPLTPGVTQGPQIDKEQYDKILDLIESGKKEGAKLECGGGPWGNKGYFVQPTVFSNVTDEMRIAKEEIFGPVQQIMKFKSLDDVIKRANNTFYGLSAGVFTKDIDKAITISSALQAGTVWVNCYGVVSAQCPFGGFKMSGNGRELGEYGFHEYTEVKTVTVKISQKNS
In words: In vitro enzymatic inhibition assay, ALDH1A1 (S121). The format is biochemical.

In a further test the target is T2, ALDH1A2 (Homo sapiens, UniProt O94788).
T2 sequence (O94788 1-518): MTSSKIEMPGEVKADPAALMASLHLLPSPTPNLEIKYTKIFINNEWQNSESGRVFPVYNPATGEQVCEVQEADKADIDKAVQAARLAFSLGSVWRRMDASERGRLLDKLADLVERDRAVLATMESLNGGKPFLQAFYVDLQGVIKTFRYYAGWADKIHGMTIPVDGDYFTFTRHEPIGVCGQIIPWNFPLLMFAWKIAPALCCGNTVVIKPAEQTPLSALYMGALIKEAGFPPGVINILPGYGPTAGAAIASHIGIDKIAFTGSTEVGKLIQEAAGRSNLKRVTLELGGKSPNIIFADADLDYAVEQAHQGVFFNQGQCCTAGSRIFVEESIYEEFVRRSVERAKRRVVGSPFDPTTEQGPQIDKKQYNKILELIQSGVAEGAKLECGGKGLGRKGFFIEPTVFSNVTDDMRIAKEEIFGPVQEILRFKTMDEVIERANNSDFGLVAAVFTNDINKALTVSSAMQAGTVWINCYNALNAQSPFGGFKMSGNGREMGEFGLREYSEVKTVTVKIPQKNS
The experiment in a line: In vitro enzymatic inhibition assay, ALDH1A2. Type of test: biochemical.

A further test deals with T3, ALDH1A3 (Homo sapiens, UniProt P47895).
T3 sequence (P47895 1-512): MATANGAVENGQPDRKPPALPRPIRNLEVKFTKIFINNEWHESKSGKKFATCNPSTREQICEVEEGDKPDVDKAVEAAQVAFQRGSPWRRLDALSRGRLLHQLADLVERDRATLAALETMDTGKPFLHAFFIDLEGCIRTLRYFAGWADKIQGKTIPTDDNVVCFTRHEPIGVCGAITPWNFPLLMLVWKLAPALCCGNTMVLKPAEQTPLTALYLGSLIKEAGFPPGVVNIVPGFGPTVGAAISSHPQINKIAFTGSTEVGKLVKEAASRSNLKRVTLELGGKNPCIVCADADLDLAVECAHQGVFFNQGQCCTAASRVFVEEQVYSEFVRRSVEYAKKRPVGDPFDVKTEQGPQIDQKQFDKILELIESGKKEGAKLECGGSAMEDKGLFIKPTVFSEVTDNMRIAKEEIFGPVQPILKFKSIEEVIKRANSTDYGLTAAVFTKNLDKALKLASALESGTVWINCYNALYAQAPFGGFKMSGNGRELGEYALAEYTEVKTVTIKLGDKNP
In words: In vitro enzymatic inhibition assay, ALDH1A3. The format is biochemical. The conditions noted are these: 2 min incub.

The target in the next test is T4, ALDH1A1 (WT) (Homo sapiens, UniProt P00352).
T4 sequence (P00352 1-501): T1 sequence (P00352 1-501 N121S) with S121N
The experiment in a line: In vitro enzymatic inhibition assay, ALDH1A1 (WT). The format is biochemical.

On to `N.N.[Cl][Pt][Cl]` [Cisplatin, reference compound], for which the tumor growth result in test [1] was “no effect on tumor growth”; in test [2], “modest restrictions in tumor growth”. In the test with ALDH+ cells, the “time to recover back to initial cell levels” value was “approximately 6 days”. The “tumor initiation (tumors/injections)” value is given as 1/4 in test [3] (200 cells injected), 4/4 in [3] (1000 cells injected) and 8/8 in test [3] (5000 cells injected). For the same compound, the “effect on tumor initiation capacity” value in [3] (compared to untreated controls) was “neither cisplatin or UM673 affected tumor initiation”. The compound also returned a time to recover with ALDH− cells of 14 days.

The IC50 is the concentration that gives 50% inhibition. Read a high IC50 as weaker potency. On to `O=Cc1ccc(N2Cc3ccccc3C2)cc1` [673B], for which the IC50 at ALDH2 is more than 20000 nM; against ALDH1A1 (S121), 1240 ± 118 nM; on ALDH1A2, 800 ± 147 nM; against ALDH1A3, 1340 ± 480 nM; on ALDH1A1 (WT) it was 450 ± 35 nM.

As for `Cc1cc(N2Cc3ccccc3C2)ccc1C=O` [673A], the IC50 was found to be 1680 ± 190 nM at ALDH2; 230 ± 10 nM against ALDH1A1 (S121); 211 ± 36 nM on ALDH1A2; 170 ± 28 nM on ALDH1A3; 216 ± 22 nM against ALDH1A1 (WT).
